Among the data in the pKa sets of Baltruschat and Czodrowski (2020) are pKa values, retold here.

Where a SMILES comes first, the peptide text is derived from it.

In the case of `O=C(O)C1CCCC[NH2+]1` (centres undefined), under “acidic group”, the pKa came to 2.5.
For the setting “basic group”, `C=CCN(CC=C)CCC[NH+](CC=C)CC=C` yielded a pKa of 6.96.
Regarding `O=[N+]([O-])c1cccc2c[n+](CCO)ccc12`, the pKa (acidic group) worked out at 11.7.
Compound `O=C(O)c1cccc([N+](=O)[O-])c1` showed a pKa (acidic group) of 3.47.
Consider `CC(C=C(c1cccs1)c1cccs1)N1CCCCC1` (centres undefined), for which, under “basic group”, the pKa was 8.46.
Turning to `O=C([O-])[C@@H]1O[C@H](Oc2ccc3ncccc3c2)[C@@H](O)[C@H](O)[C@H]1O`, the pKa (basic group) worked out at 5.
In turn, `CCOC(=S)S` gave a pKa (acidic group) of 1.79.
For the setting “acidic group”, `Nc1ccc(O)c([N+](=O)[O-])c1` displayed a pKa of 7.81.
`N[C@H]1C[C@H]2CCCC[C@@H]2C[C@@H]1N` displayed a pKa (basic group) of 10.1.
`N#CC(C#N)=NNc1cccc(Cl)c1`: the pKa (acidic group) was 6 and the pKa (basic group) was -0.78.
For the compound `N#CC(CCN1CCOCC1)(c1ccccc1)c1ccccc1`, where the note is “basic group”, the pKa was found to be 6.09.
Consider `CC(C)(N)CN`, for which the pKa (basic group) amounted to 10.
In turn, `CCCCCCCCCCCCN(CCO)CC(C)O` (centres undefined) registered a pKa (basic group) of 6.5.
Where the note is “acidic group”, `O=C(O)/C=C/c1cccc(O)c1` showed a pKa of 4.4.
In turn, `Nc1cccc2ccc3ncccc3c12` came in with a pKa (basic group) of 5.03.
The same measure, in the same setting: for `Cc1cc(-c2ncc[nH]2)n[nH]1` the value was 6.16.
On to `CCOC(=O)C(=NO)C(=O)OCC`, for which the pKa (acidic group) stood at 5.48.
`Cc1ncncc1N` returned a pKa (basic group) of 3.15.
Where the note is “basic group”, `CC1(C)S[C@H]2C(C(=O)[O-])N=C(CCCC(N)C(=O)[O-])N2C1C(=O)[O-]` (some centres undefined) yielded a pKa of 10.3.
In turn, `O=P([O-])(O)c1cn2c([nH+]1)[C@@H](O)[C@H](O)[C@@H](O)[C@@H]2CO` showed a pKa (acidic group) of 4.84.
As to `CNC(C)(C)C(=O)[O-]`, the pKa (basic group) was 10.8.
On the same count and under the same terms, the figure for `NCCc1c[nH]c2ccccc12` is 10.2.
In turn, `[NH3+]CCCC#CC#CCCC(=O)O` returned a pKa (acidic group) of 4.12.
In the case of `CCCCNCCC(=O)[O-]`, for the setting “basic group”, the pKa came to 10.6.
The compound `O=C(O)/C=C/c1ccco1` had a pKa (acidic group) of 4.29.
Same read-out and setting: the figure for `N#CC(C(=O)O)C1CCCCC1` (centres undefined) is 2.37; for `O=[N+]([O-])c1n[nH]c(-n2cnc(Br)n2)n1` it is 1.63.
Take `CNCC(O)c1ccccc1` (centres undefined): for the setting “basic group”, the pKa worked out at 9.31.
Same read-out and setting: the figure for `C[C@@H]1CC[C@@H]2CCCN21` is 12.
In turn, `[NH3+][C@H]1CC[C@@H](C(=O)O)CC1` gave a pKa (acidic group) of 4.6.
On to `CN1C[C@@H](C(=O)[O-])C[C@H]2c3cccc4[nH]cc(c34)C[C@@H]21`, for which the pKa (basic group) was 8.47.
Turning to `COc1ccccc1/C=C/C=N/O`, the pKa (acidic group) is 10.8.
For the compound `O=c1[nH]c(=S)c2[nH]cnc2[nH]1`, the pKa runs as follows: (acidic group) 6.2; (basic group) 0.9.
`O=[N+]([O-])c1ccc(C(=S)Nc2ccccc2)cc1`: the pKa (acidic group) is 9.81.
For the compound `NC/C=C\C(=O)[O-]`, the pKa (basic group) was 9.84.
The same measure, in the same setting: for `Nc1c2ccccc2nc2c(N)cccc12` the value was 9.3.
The compound `O=C1NC(=O)C(Cc2ccccc2)N1` (centres undefined) yielded a pKa (acidic group) of 9.03.
As to `Cc1ccc(/N=C/N(C)C)cc1`, the pKa (basic group) worked out at 9.21.
Same read-out and setting: for `Cc1nnc(C)c(C)c1C` the value was 5.36.
For `CC[NH+](CC)Cc1cc(Br)ccc1O`, under “acidic group”, the pKa came out at 7.7.
For the setting “basic group”, `C#CCCCCN` came in with a pKa of 10.5.
The compound `CCCc1c(C)[nH]n(C2CC[NH+](C)CC2)c1=O` registered a pKa (acidic group) of 7.18.
In the case of `S=C(/N=N/c1ccccc1)NNc1ccccc1`, the pKa (basic group) came out at 4.64.
Where the note is “acidic group”, `Cc1ccc(O)cc1C(=O)O` came in with a pKa of 3.92.
Turning to `[NH3+]c1ccc(/C=N/NC(=O)c2ccncc2)cc1`, the pKa (basic group) stood at 3.2.
With `C/C=C/C#CC(=O)O`, the pKa (acidic group) stood at 2.67.
`CC(=O)/C(CN1CCOCC1)=N\O`: the pKa is, setting by setting: (acidic group) 9.15; (basic group) 6.1.
The like results for `O=C(O)c1ccc[nH]1` were, in that order, 4.35 and -0.65.
On to `Cc1ccc(/C(N)=N/O)cc1`, for which, for the setting “basic group”, the pKa came to 5.14.
`CC(C)C(=O)CC=O` displayed a pKa (acidic group) of 6.68.
`Cc1ccnnc1` had a pKa (basic group) of 3.22.
Consider `O=C(O)CC1CCCCC1`, for which the pKa (acidic group) was 4.8.
Under “acidic group”, `NNC(=O)C1(F)C(F)(F)C(F)(F)C(F)(F)C(F)(F)C1(F)F` gave a pKa of 9.14.
In turn, `C1=C(c2nc3ccccc3o2)C2CCN1CC2` came in with a pKa (basic group) of 7.23.
Same read-out and setting: the figure for `Nc1cc2ccccc2cn1` is 5.05.
Same read-out and setting: the figure for `CN(C)CCCNc1ccnc2ccccc12` is 8.85; for `CC[C@]12CCCN3CC[C@@]4(c5cccc(OC)c5N[C@H]4CC1)[C@@H]32` it is 8.46.
For `CCCCCCCCCCNCc1ccc(C)cc1`, for the setting “basic group”, the pKa came to 9.48.
Compound `CO/C(C)=C\C(=O)O` registered a pKa (acidic group) of 5.81.
Consider `CCCSCC(=O)O`, for which the pKa (acidic group) is 3.77.
For the compound `C[Si](C)(C)CNc1ccccc1`, the pKa (basic group) was determined as 5.3.
Turning to `CCN(CC)CC(=N\[O-])/C(C)=N/O`, the pKa reads like this: (acidic group) 11.9; (basic group) 11.9.
On to `Cc1ccccc1SCC(=O)O`, for which, for the setting “acidic group”, the pKa came out at 3.46.
Turning to `CNCC(C)C[NH2+]C`, the pKa (basic group) worked out at 8.29.
On the same count and under the same terms, for `NCc1ccncc1` the value was 8.3.
Still for that read-out and setting: for `CCN(CC)CCOCC[NH+](CC)CC` the value was 8.61.
`O=C(O)COc1ccccc1`: the pKa (acidic group) was 3.15.
Turning to `Clc1cccc(-c2nnn[nH]2)c1`, the pKa (acidic group) turned out to be 3.61.
For the setting “basic group”, `CC[NH+](CC)CCNc1cc(Nc2ccc(Cl)cc2)nc(C)n1` displayed a pKa of 5.42.
Where the note is “acidic group”, `OCC[NH+](CCc1nnn[nH]1)CCc1nnn[nH]1` gave a pKa of 4.23.
The same measure, in the same setting: the figure for `C=C(C)[C@H]1C[NH2+][C@H](C(=O)[O-])[C@H]1CC(=O)O` is 4.43; for `CC/C=C/C(=O)O` it is 4.69.
Turning to `Cc1ccc(CCN)cc1`, the pKa (basic group) came out at 9.78.
`O=C(Cc1ccccc1)NO` gave a pKa (acidic group) of 9.26.
For the setting “basic group”, `NC(=O)CCc1cccnc1` displayed a pKa of 5.21.
For the setting “acidic group”, `Sc1nnco1` yielded a pKa of 3.85.
As to `Nc1ccc(/C=C/c2cc(N)c3ccccc3n2)cc1`, the pKa (basic group) came to 9.5.
As to `O=C(O)/C=C/CCl`, the pKa (acidic group) was 4.14.
In the case of `OCCCCc1ccccn1`, the pKa (basic group) came to 5.83.
The compound `Cc1cncc(C)c1` yielded a pKa (basic group) of 6.15.
The same measure, in the same setting: the figure for `Cc1ncc[nH]1` is 7.97; for `C[NH+]1CCCC1c1cccnc1` (centres undefined) it is 3.01.
For `CCCC(=O)NO`, the pKa (acidic group) came out at 9.48.
Compound `O=C(O)c1cccc(Cl)c1` yielded a pKa (acidic group) of 3.8.
With `C[NH+](C)CCN1C=Nc2cccc3cccc1c23`, the pKa (basic group) was found to be 4.64.
In turn, `CC(=O)OCC(=N/[O-])/C(C)=N/O` displayed a pKa (acidic group) of 11.5.
Compound `CNC(C)Cc1ccc(OC)c(OC)c1` (centres undefined) had a pKa (basic group) of 9.8.
Still for that read-out and setting: the figure for `CC/N=C1\C=C(NCC)CC(C)(C)C1` is 12.1; for `CC[C@]12CCC[NH+]3CC[C@@]4(c5cccc(OC)c5N[C@H]4CC1)[C@@H]32` it is 2.7; for `c1ccnnc1` it is 2.33.
Under “acidic group”, `Oc1ccc2ccc(Cl)cc2c1` yielded a pKa of 9.09.
In the case of `CCC(C)(O)C(C(=O)O)c1ccc(-c2ccccc2)cc1` (centres undefined), for the setting “acidic group”, the pKa is 3.41.
In turn, `CCCC[C@H](N)C(=O)[O-]` displayed a pKa (basic group) of 9.76.
Still for that read-out and setting: the figure for `CCCCCCNCc1ccc(C)cc1` is 10.2.
`O=[PH]([O-])C(NCc1cccnc1)c1ccccc1O` (centres undefined) gave a pKa (acidic group) of 12 and a pKa (basic group) of 8.05.
`Cn1nc(/N=N/O)nc1N1CCCCC1` returned a pKa (acidic group) of 5.46.
`O=c1cc(-c2ccccc2O)oc2ccccc12` had a pKa (acidic group) of 8.85.
`O=C(O)CCc1c[nH]c2ccccc12` registered a pKa (acidic group) of 4.87.
Where the note is “basic group”, `C[NH+](C)CCCNc1c2ccccc2nc2c(Cl)ccc([N+](=O)[O-])c12` yielded a pKa of 5.
The same measure, in the same setting: for `CNCl` the value was 1.71.
Compound `CO/C([O-])=N/c1ncnc2nc[nH]c12` showed a pKa (acidic group) of 12.1.
Consider `Oc1ccc(Cl)cc1CN1CCOCC1`, for which the pKa (acidic group) was found to be 9.85 and the pKa (basic group) was 6.78.
In the case of `CCCCCCn1ccnc1`, the pKa (basic group) is 7.2.
Take `O=C1C=CC(=O)c2c(O)cccc21`: the pKa (acidic group) was found to be 8.7.
On the same count and under the same terms, the figure for `Oc1cnc2ccccc2[nH+]1` is -1.37.
Regarding `Cn1cncc(-c2ccccc2)c1=O`, the pKa (basic group) is 1.5.
On to `COc1cc(C)ccc1C(=O)O`, for which the pKa (acidic group) is 4.38.
For `CC1=C(CC(C)NCC(O)c2ccc(F)cc2)CCC1(C)C` (centres undefined), the pKa (basic group) worked out at 8.51.
Still for that read-out and setting: for `CNCCC(=O)c1ccccc1` the value was 9.
For `C[N+](C)(C)c1ccc(O)c([N+](=O)[O-])c1`, the pKa (acidic group) stood at 5.03.
As for `C[C@@H]1C[C@H](OC(=O)c2ccccc2)CC(C)(C)N1`, the pKa (basic group) is 8.97.
`ClCC1CC2CCN1CC2` (centres undefined) gave a pKa (basic group) of 9.68.
For `CC[Si](C)(C)CCCC(=O)O`, the pKa (acidic group) turned out to be 5.02.
Under “basic group”, `C#CC(C)(C)Nc1ccccc1` gave a pKa of 4.26.
In the case of `NC(CC(=O)[O-])C(=O)NC(CC(=O)[O-])C(=O)[O-]` (stereo not drawn) (H-Asp-Asp-OH; configuration not given here), where the note is “basic group”, the pKa came out at 8.26.
In the case of `CCN(CC)CC(O)CN(CC)CC`, the pKa (basic group) is 9.8.
For the setting “acidic group”, `O=S(=O)([O-])c1c(O)ccc2cn[nH]c12` came in with a pKa of 9.45.
In the case of `O=Cc1ncccc1O`, the pKa runs as follows: (acidic group) 6.95; (basic group) 3.4.
For `O=Nc1c(O)ccc2ncsc12`, under “acidic group”, the pKa is 5.43.
In the case of `Nc1ccc(-c2ccc(/N=C/c3ccc(O)cc3)cc2)cc1`, the pKa came to 9.5 (acidic group) and 6.86 (basic group).
On to `NNC(=O)c1cccc([NH3+])c1`, for which, where the note is “basic group”, the pKa stood at 2.57.
For the setting “acidic group”, `CCC(C)CC(=O)O` (centres undefined) registered a pKa of 4.84.
On the same count and under the same terms, the figure for `CC(O)(C(=O)O)c1ccccc1` (centres undefined) is 3.53.
`N=C(N)N`: the pKa (basic group) was found to be 13.1.
Compound `CCOc1ccccc1/C=C/C(=O)O` registered a pKa (acidic group) of 4.68.
Compound `Cn1cnc2ncnc([O-])c21` gave a pKa (basic group) of 8.8.
Where the note is “acidic group”, `CC1(C)CCC(C(=O)O)=[N+]1[O-]` gave a pKa of 2.8.
Consider `C[C@@H]1CNC[C@H](C)N1`, for which, for the setting “basic group”, the pKa turned out to be 9.86.
The same measure, in the same setting: for `Cc1n[nH]c2c(N)ncnc12` the value was 5.02.
The same measure, in the same setting: for `Nc1ccccc1-c1ccccc1` the value was 3.81.
As to `c1c(CN2CCNCC[NH2+]CC2)n[nH]c1CN1CCNCCNCC1`, the pKa (basic group) turned out to be 10.5.
Take `CCOc1ccc2[nH]c(C(C)C)nc2c1`: the pKa (basic group) came to 6.17.
Take `NC(=O)c1cccnc1`: the pKa runs as follows: (acidic group) 13.5; (basic group) 3.32.
Compound `Cn1cnc2c([O-])ncnc21` showed a pKa (basic group) of 9.11.
